# Laboratory results published in patent US9994587B2, “HIV protease inhibitors” (priority 2014, dated 2018).
# Biological target: T1, wildtype HIV-1 protease (Human immunodeficiency virus type 1 group M subtype B, UniProt P04585)
# T1 construct: preincubated with the HIV-1 protease (wild type) enzyme in assay buffer; made in house; host or cells: Escherichia coli
# Assay: Assay for inhibition of microbial expressed HIV protease (Pepcleav)
# Type: biochemical
# Conditions: wild type HIV-1 protease 20 pM, peptide substrate 400 micromolar, pH 5.5; mean of at least two independent experiments
# Experimental: Assay for Inhibition of Microbial Expressed HIV Protease (“Pepcleav”)
# Studies of the inhibition of the wildtype HIV-1 protease (which was expressed in Escherichia coli) were carried out with a peptide substrate [Val-Ser-Gln-Asn-(βnaphtyl)Ala-Pro-Ile-Val (SEQ ID NO 1)]. The inhibitor was first preincubated with the HIV-1 protease (wild type) enzyme in assay buffer (50 mM sodium acetate, pH 5.5, 100 mM NaCl, and 0.1% BSA) for 30 minutes at room temperature. Substrate was added to 400 micromolar in a total volume of 20 microliters containing 20 picomolar HIV-1 protease (final) and the reaction is incubated for 1 hour at 30° C. The reaction was quenched with the addition of formic acid and indinavir to 0.012% and 150 nM final concentrations, respectively. Product formation was determined after separation of product and substrate on a Zorbax Eclipse XDB-C18 column connected to an API 4000 mass spectrometer (Applied Biosystems) with multiple reaction monitoring (transitions were 644.5/428.9 and 615.4/422.2 (M1/M3) for product and indinavir respectively). The extent of inhibition of the reaction was determined from the peak area of the products.
row,Structure (SMILES),IC50
1,"O=C(Nc1c(CC[C@@H]2CNC[C@@H](CSc3ccc(Cl)cc3)O2)cc[nH]c1=O)[C@@H](NCC(F)(F)F)C(c1ccccc1)c1ccccc1 [Example 89, N-(4-{2-[(2R,6S)-6-{[(4-chlorophenyl)sulfanyl]methyl}morpholin-2-yl]ethyl}-2-oxo-1,2-dihydropyridin-3-yl)-β-phenyl-Nα-(2,2,2-trifluoroethyl)-L-phenylalaninamide]",0.0123 µM
2,"COC(=O)N[C@H](C(=O)Nc1ccccc1CC[C@@H]1CNC[C@@H](COc2ccc(Br)cc2N)O1)C(c1ccccc1)c1ccccc1 [Example 13, methyl N-[(1S)-1-[[2-[2-[(2R,6S)-6-[(2-amino-4-bromo-phenoxy)methyl]morpholin-2-yl]ethyl]phenyl]carbamoyl]-2,2-diphenyl-ethyl]carbamate]",0.021 µM
3,"COC(=O)N[C@H](C(=O)Nc1ccc(F)cc1CC[C@@H]1CNC[C@@H](COc2cccc(C#N)c2)O1)C(c1ccccc1)c1ccccc1 [Example 74, N-[2-(2-{(2R,6S)-6-[(3-cyanophenoxy)methyl]morpholin-2-yl}ethyl)-4-fluorophenyl]-Nα-(methoxycarbonyl)-β-phenyl-L-phenylalaninamide]",0.039 µM
4,"COC(=O)N[C@H](C(=O)NCCCCC1CNC[C@@H](CS(=O)(=O)c2ccc(N)cc2)O1)C(c1ccccc1)c1ccccc1 (stereo partly drawn) [Example 1, Methyl N-[(1S)-1-[4-[(6S)-6-[(4-aminophenyl)sulfonylmethyl]morpholin-2-yl]butylcarbamoyl]-2,2-diphenyl-ethyl]carbamate]",0.45 µM
5,"N[C@H](C(=O)Nc1cccc(F)c1CC[C@@H]1CNC[C@@H](CSc2ccc(Cl)cc2)O1)C(c1ccc(F)cc1)c1ccc(F)cc1 [Example 121, N-(2-{2-[(2R,6S)-6-{[(4-chlorophenyl)sulfanyl]methyl}morpholin-2-yl]ethyl}-3-fluorophenyl)-4-fluoro-β-(4-fluorophenyl)-L-phenylalaninamide]",0.0052 µM
6,"COC(=O)N[C@H](C(=O)Nc1ccccc1CC[C@@H]1CNC[C@@H](COc2ccc(Br)cc2)O1)C(c1ccccc1)c1ccccc1 [Example 9, methyl N-[(1S)-1-benzhydryl-2-[[2-[2-[(2R,6S)-6-[(4-bromophenoxy)methyl]morpholin-2-yl]ethyl]phenyl]amino]-2-oxo-ethyl]carbamate]",0.018 µM
7,"COC(=O)N[C@H](C(=O)Nc1ccccc1CC[C@@H]1CNC[C@@H](COc2ccc3ncsc3c2)O1)C(c1ccccc1)c1ccccc1 [Example 48, N-[2-(2-{(2R,6S)-6-[(1,3-benzothiazol-6-yloxy)methyl]morpholin-2-yl}ethyl)phenyl]-Nα-(methoxycarbonyl)-β-phenyl-L-phenylalaninamide]",0.0055 µM
8,"COC(=O)N[C@H](C(=O)Nc1ccccc1CC[C@@H]1CNC[C@@H](CSc2cccc(C#N)c2)O1)C(c1ccccc1)c1ccccc1 [Example 24, methyl N-[(1S)-1-benzhydryl-2-[[2-[2-[(2R,6S)-6-[(3-cyanophenyl)sulfanylmethyl]morpholin-2-yl]ethyl]phenyl]amino]-2-oxo-ethyl]carbamate]",0.0021 µM
9,"COC(=O)N[C@H](C(=O)Nc1ccccc1CC[C@@H]1CNC[C@@H](COc2ccccc2F)O1)C(c1ccccc1)c1ccccc1 [Example 49, N-[2-(2-{(2R,6S)-6-[(2-fluorophenoxy)methyl]morpholin-2-yl}ethyl)phenyl]-Nα-(methoxycarbonyl)-β-phenyl-L-phenylalaninamide]",0.014 µM
10,"COC(=O)N[C@H](C(=O)Nc1ccccc1CC[C@@H]1CNC[C@@H](CSc2ccc(Cl)cc2)O1)[C@H](c1ccccc1)c1ccncc1 [Example 69, (βR)-N-(2-{2-[(2R,6S)-6-{[(4-chlorophenyl)sulfanyl]methyl}morpholin-2-yl]ethyl}phenyl)-Nα-(methoxycarbonyl)-β-pyridin-4-yl-L-phenylalaninamide]",0.0003 µM
11,"COC(=O)N[C@H](C(=O)Nc1ccccc1CC[C@@H]1CNC[C@@H](COc2ccc(S(N)(=O)=O)cc2)O1)C(c1ccccc1)c1ccccc1 [Example 55, N-α-(methoxycarbonyl)-β-phenyl-N-[2-(2-{(2R,6S)-6-[(4-sulfamoylphenoxy)methyl]morpholin-2-yl}ethyl)phenyl]-L-phenylalaninamide]",0.012 µM
12,"COC(=O)N[C@H](C(=O)Nn1c(CC[C@@H]2CNC[C@@H](COc3ccc(C#N)cc3)O2)cccc1=O)C(c1ccccc1)c1ccccc1 [Example 90, N-[6-(2-{(2R,6S)-6-[(4-cyanophenoxy)methyl]morpholin-2-yl}ethyl)-2-oxopyridin-1 (2H)-yl]-Nα-(methoxycarbonyl)-β-phenyl-L-phenylalaninamide]",0.0533 µM
13,"COC(=O)N[C@H](C(=O)Nc1ccccc1CC[C@@H]1CNC[C@@H](CSc2cccc3ncccc23)O1)C(c1ccccc1)c1ccccc1 [Example 42, methyl [(2S)-1-oxo-3,3-diphenyl-1-{[2-(2-{(2R,6S)-6-[(quinolin-5-ylsulfanyl)methyl]morpholin-2-yl}ethyl)phenyl]amino}propan-2-yl]carbamate]",0.00094 µM
14,"COC(=O)N[C@H](C(=O)Nc1ncccc1CC[C@@H]1CNC[C@@H](COc2ccc(C#N)cc2)O1)C(c1ccccc1)c1ccccc1 [Example 85, N-[3-(2-{(2R,6S)-6-[(4-cyanophenoxy)methyl]morpholin-2-yl}ethyl)pyridin-2-yl]-Nα-(methoxycarbonyl)-β-phenyl-L-phenylalaninamide]",0.088 µM
15,"COC(=O)N[C@H](C(=O)Nc1cccc(F)c1CC[C@@H]1CNC[C@@H](COc2ccc(C#N)cc2)O1)C(c1ccccc1)c1ccccc1 [Example 71, N-[2-(2-{(2R,6S)-6-[(4-cyanophenoxy)methyl]morpholin-2-yl}ethyl)-3-fluorophenyl]-Nα-(methoxycarbonyl)-β-phenyl-L-phenylalaninamide]",0.0074 µM
16,"N#Cc1cccc(SC[C@@H]2CNC[C@@H](CCc3c(F)cncc3NC(=O)[C@@H](N)C(c3ccc(F)cc3)c3ccc(F)cc3)O2)c1 [Example 102, N-(4-{2-[(2R,6S)-6-{[(3-cyanophenyl)sulfanyl]methyl}morpholin-2-yl]ethyl}-5-fluoropyridin-3-yl)-4-fluoro-β-(4-fluorophenyl)-L-phenylalaninamide]",0.00047 µM
17,"COC(=O)N[C@H](C(=O)Nc1ccccc1CC[C@@H]1CNC[C@@H](COc2cccc3cc[nH]c23)O1)C(c1ccccc1)c1ccccc1 [Example 38, N-[2-(2-{(2R,6S)-6-[(1H-indol-7-yloxy)methyl]morpholin-2-yl}ethyl)phenyl]-Na-(methoxycarbonyl)-b-phenyl-L-phenylalaninamide]",0.24 µM
18,"N[C@H](C(=O)Nc1cncc(F)c1CC[C@@H]1CNC[C@@H](COC(=O)NCC(F)(F)F)O1)C(c1ccc(F)cc1)c1ccc(F)cc1 [Example 123, 4-fluoro-β-(4-fluorophenyl)-N-(5-fluoro-4-{2-[(2R,6S)-6-({[(2,2,2-trifluoroethyl)carbamoyl]oxy}methyl)morpholin-2-yl]ethyl}pyridin-3-yl)-L-phenylalaninamide]",0.016 µM
19,"COC(=O)N[C@H](C(=O)Nc1cncc(F)c1CC[C@@H]1CNC[C@@H](COc2ccc(C#N)cc2)O1)C(c1ccccc1)c1ccccc1 [Example 82, Methyl[(1S)-2-{[4-(2-{(2R,6S)-6-[(4-cyanophenoxy)methyl]morpholin-2-yl}ethyl)-5-fluoropyridin-3-yl]amino}-1-(diphenylmethyl)-2-oxoethyl]carbamate]",0.0098 µM
